Test results reported in the NIST ThermoML archive (doi:10.1016/j.jct.2015.02.006).
Numbers after ± are expanded uncertainties.

Conditions: Liquid, Closed cell (Static) method

SMILES	vapor or sublimation pressure (303.15 K) [kPa]	vapor or sublimation pressure (318.15 K) [kPa]	vapor or sublimation pressure (333.15 K) [kPa]
CCO [ethanol]	10.42 ± 0.38	23.02 ± 0.46	46.63 ± 0.58
CC1CO1 (centres undefined) [methyloxirane]	86.9 ± 1.2	147.85 ± 1.9	237.88 ± 2.8
CCCO [propan-1-ol]	3.63 ± 0.31	9.01 ± 0.34	19.93 ± 0.39
